The assay addresses T1, SIRT1 (Homo sapiens, UniProt Q96EB6).
T1 sequence (Q96EB6 1-747): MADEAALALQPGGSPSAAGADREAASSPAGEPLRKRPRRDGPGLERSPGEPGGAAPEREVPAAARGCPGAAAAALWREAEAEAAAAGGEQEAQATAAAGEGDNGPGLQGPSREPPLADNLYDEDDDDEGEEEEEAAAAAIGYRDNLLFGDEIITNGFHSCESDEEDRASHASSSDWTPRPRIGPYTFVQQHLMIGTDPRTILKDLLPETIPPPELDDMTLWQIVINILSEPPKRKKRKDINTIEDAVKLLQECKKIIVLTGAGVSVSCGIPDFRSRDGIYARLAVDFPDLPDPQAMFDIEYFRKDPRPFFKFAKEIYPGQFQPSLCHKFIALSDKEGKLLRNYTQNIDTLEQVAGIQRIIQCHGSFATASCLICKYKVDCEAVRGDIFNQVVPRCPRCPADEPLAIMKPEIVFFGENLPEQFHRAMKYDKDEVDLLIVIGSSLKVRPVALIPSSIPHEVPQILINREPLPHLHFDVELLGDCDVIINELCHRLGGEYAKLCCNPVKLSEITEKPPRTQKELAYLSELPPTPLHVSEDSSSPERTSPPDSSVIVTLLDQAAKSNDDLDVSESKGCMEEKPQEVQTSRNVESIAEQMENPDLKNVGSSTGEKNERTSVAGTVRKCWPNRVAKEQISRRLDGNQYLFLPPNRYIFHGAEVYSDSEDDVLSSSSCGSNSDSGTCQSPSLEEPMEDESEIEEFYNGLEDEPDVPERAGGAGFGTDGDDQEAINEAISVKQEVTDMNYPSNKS
Nature of the assay: TAMRA based mass spectrometry assay of SIRT1 activity. In kind it is biochemical. As to conditions: for Emax: read-out: TAMRA % Fold Act. In a few lines: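 Recombinant N-terminal His-tagged human SIRT1 (10 nM, E. coli) incubated 25 min at 25 °C with 0.5 μM 5TMR-labelled p53-derived acetyl-peptide and 120 μM βNAD+ in Tris-acetate pH 8 buffer with DTT and 0.05% BSA, compound at varying concentrations. Stopped with formic acid; deacetylated peptide or OAADPR measured by mass spectrometry relative to DMSO controls.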

The mark [1] stands for this setting: concentration of test compound giving 150% activation of SIRT1, TAMRA peptide substrate.
The mark [2] stands for this setting: percent maximum fold activation of SIRT1, TAMRA peptide substrate.
The mark [3] stands for this setting: TAMRA peptide substrate, concentration giving 150% activation of SIRT1.
Setting [4] is: TAMRA peptide substrate, percent maximum fold activation.
[5] abbreviates: TAMRA assay, concentration giving 150% activation of SIRT1.
[6] abbreviates: TAMRA assay, percent maximum fold activation.

Molecules are shown by their SMILES. Like-named read-outs stand apart in the source and are kept apart here.

For the compound `O=C(Nc1cccc(N2CCOCC2)n1)c1cnc2ccc(-c3c(F)cccc3F)nn12` [Compound 168], under setting [1], the “TAMRA EC1.5 (μM)” value is “A (EC1.5<1 μM)”. Besides, the Emax under setting [2] was ≥ 350%.

As to `O=C(Nc1cnc2ccc(-c3ccccc3C(F)(F)F)nn12)c1ccncn1` [Compound 90], under setting [1], the “TAMRA EC1.5 (μM)” value is “A (EC1.5<1 μM)”. For the same compound, the Emax under setting [2] is ≥ 350%.

Consider `Cc1nc2ccc(-c3ccccc3OC(F)(F)F)nn2c1C(=O)Nc1cccnn1` [Compound 470], for which the “TAMRA EC1.5” value under setting [3] is listed as “A (EC1.5<1 μM)”. Under setting [4], the Emax is ≥ 350%.

Take `O=C(Nc1nc(CN2CCOCC2)cs1)c1cnc2ccc(-c3cccc(F)c3F)nn12` [Compound 48]: the “TAMRA EC1.5 (μM)” value under setting [1] was “B (EC1.5 1-25 μM)”. The Emax under setting [2] is ≥ 350%.

Take `O=C(Nc1cnc2ccc(N3CC[C@H](F)C3)nn12)c1ccccn1` [Compound 564]: the “TAMRA EC1.5” value under setting [3] is reported as “B (EC1.5 1-25 μM)”. Further, under setting [4], the Emax is < 350%.

With `Cc1nc2c(C)cc(-c3ccccc3C(F)(F)F)nn2c1C(=O)Nc1cncc(OC[C@H](O)CO)n1` [Compound 468], under setting [3], the “TAMRA EC1.5” value is “A (EC1.5<1 μM)”. In addition, the Emax under setting [4] was ≥ 350%.

In the case of `O=C(Nc1nccs1)c1cnn2ccc(-c3ccccc3C(F)(F)F)nc12` [Compound 506], the “TAMRA EC1.5” value under setting [3] is “A (EC1.5<1 μM)”. Also, the Emax under setting [4] is ≥ 350%.

For the compound `O=C(Nc1ccccn1)c1cnc2ccc(-c3cccc(C(F)(F)F)c3)nn12` [Compound 4, N-(pyridin-2-yl)-6-(3-(trifluoromethyl)phenyl)imidazo[1,2-b]pyridazine-3-carboxamide], the “TAMRA EC1.5 (μM)” value under setting [1] is given as “B (EC1.5 1-25 μM)”. In addition, the Emax under setting [2] was < 350%.

`Cc1cc(C)nc(NC(=O)c2cnc3ccc(N4CCCC(C(F)(F)F)C4)nn23)c1` (centres unmarked) [Compound 579]: under setting [3], the “TAMRA EC1.5” value was “B (EC1.5 1-25 μM)”. Besides, the Emax under setting [4] was < 350%.

On to `O=C(Nc1cnn2ccc(-c3ccccc3C(F)(F)F)nc12)c1cccc(N2CCOCC2)n1` [Compound 256], for which the “TAMRA EC1.5 (μM)” value under setting [5] is listed as “A (EC1.5<1 μM)”. For the same compound, the Emax under setting [6] was ≥ 350%.

Regarding `Cc1cc(OCC(O)CO)nc(NC(=O)c2cnc3ccc(-c4ccccc4C(F)(F)F)nn23)n1` (centres unmarked) [Compound 76], the “TAMRA EC1.5 (μM)” value under setting [1] is “B (EC1.5 1-25 μM)”. In addition, the Emax under setting [2] is ≥ 350%.

For `O=C(Nc1ccnc(N2CCOCC2)c1)c1cnc2ccc(-c3ccccc3C(F)F)nn12` [Compound 39], the “TAMRA EC1.5 (μM)” value under setting [1] is “A (EC1.5<1 μM)”. Under setting [2], the Emax is ≥ 350%.

Take `Cc1cc(OCC(F)(F)F)nc(NC(=O)c2cnc3ccc(-c4ccccc4C(F)(F)F)nn23)n1` [Compound 310]: the “TAMRA EC1.5 (μM)” value under setting [5] is “A (EC1.5<1 μM)”. Moreover, the Emax under setting [6] is ≥ 350%.

As for `Cc1nc(C(=O)Nc2cnc3ccc(-c4ccccc4Cl)nn23)cs1` [Compound 292], the “TAMRA EC1.5 (μM)” value under setting [5] is recorded as “A (EC1.5<1 μM)”. The Emax under setting [6] was ≥ 350%.

With `Cc1cc(C)nc(NC(=O)c2c(C)nc3c(C)cc(-c4ccccc4OC(F)(F)F)nn23)c1` [Compound 493], the “TAMRA EC1.5” value under setting [3] is recorded as “A (EC1.5<1 μM)”. Besides, under setting [4], the Emax is ≥ 350%.

Take `Cc1nc(C(=O)Nc2cnn3ccc(-c4ccccc4C(F)(F)F)nc23)c(C)s1` [Compound 526]: under setting [3], the “TAMRA EC1.5” value is recorded as “A (EC1.5<1 μM)”. In addition, under setting [4], the Emax is ≥ 350%.

As for `Cc1c(-c2ccccc2Cl)nn2c(NC(=O)c3cccc(OCC(O)CO)n3)cnc2c1C` (centres unmarked) [Compound 402], the “TAMRA EC1.5” value under setting [3] is given as “A (EC1.5<1 μM)”. Also, the Emax under setting [4] is ≥ 350%.

For the compound `Cc1ccnc(NC(=O)c2c(C)nc3ccc(-c4cccc(OC[C@H](O)CO)c4)nn23)c1` [Compound 798], the “TAMRA EC1.5 (μM)” value under setting [5] is “A (EC1.5<1 μM)”. Moreover, the Emax under setting [6] was ≥ 350%.

As for `O=C(Nc1cnn2ccc(-c3ccccc3C(F)(F)F)nc12)c1nc2c(s1)CCCC2` [Compound 810], the “TAMRA EC1.5 (μM)” value under setting [5] is on record as “A (EC1.5<1 μM)”. In addition, under setting [6], the Emax is ≥ 350%.

Take `Cc1cc(NC(=O)c2c(C)nn3ccc(-c4ccccc4C(F)(F)F)nc23)cc(C)n1` [Compound 648]: the “TAMRA EC1.5 (μM)” value under setting [5] is “A (EC1.5<1 μM)”. The Emax under setting [6] was ≥ 350%.

On to `O=C(Nc1ccccn1)c1cnc2ccc(-c3cccc(OCC(O)CO)c3)nn12` (centres unmarked) [Compound 373], for which, under setting [5], the “TAMRA EC1.5 (μM)” value was “B (EC1.5 1-25 μM)”. Moreover, under setting [6], the Emax is < 350%.

On to `COc1ccc(NC(=O)c2c(C)nc3ccc(-c4ccccc4Br)nn23)nn1` [Compound 765], for which the “TAMRA EC1.5 (μM)” value under setting [5] is reported as “A (EC1.5<1 μM)”. In addition, the Emax under setting [6] is ≥ 350%.

With `Cc1nc2c(C)cc(-c3ccccc3OC(F)(F)F)nn2c1C(=O)Nc1ccc(F)cn1` [Compound 495], the “TAMRA EC1.5” value under setting [3] is “A (EC1.5<1 μM)”. Further, the Emax under setting [4] was < 350%.

Turning to `Cc1nc(C(=O)Nc2cnc3ccc(-c4ccccc4C#N)nn23)cs1` [Compound 333], under setting [5], the “TAMRA EC1.5 (μM)” value is listed as “B (EC1.5 1-25 μM)”. The Emax under setting [6] was ≥ 350%.

On to `Cc1nc2ccc(-c3ccccc3C(F)(F)F)nn2c1C(=O)Nc1cnncn1` [Compound 667], for which the “TAMRA EC1.5 (μM)” value under setting [5] is recorded as “A (EC1.5<1 μM)”. Also, the Emax under setting [6] is ≥ 350%.

As to `O=C(Nc1ccnc(N2CCOCC2)c1)c1cnc2ccc(-c3ccccc3C(F)(F)F)nn12` [Compound 24], under setting [1], the “TAMRA EC1.5 (μM)” value was “B (EC1.5 1-25 μM)”. Further, the Emax under setting [2] was ≥ 350%.

With `O=C(Nc1cnn2ccc(-c3ccccc3OC(F)(F)F)nc12)c1cccc(-n2cnnc2)n1` [Compound 769], the “TAMRA EC1.5 (μM)” value under setting [5] is on record as “A (EC1.5<1 μM)”. Further, under setting [6], the Emax was ≥ 350%.

For the compound `O=C(Nc1ccnc(N2CCC2)c1)c1cnc2ccc(-c3c(F)cccc3Cl)nn12` [Compound 165], the “TAMRA EC1.5 (μM)” value under setting [1] is “B (EC1.5 1-25 μM)”. The Emax under setting [2] is ≥ 350%.

As for `O=C(Nc1cccc(N2CCOCC2)n1)c1cnc2ccc(-c3ccccc3C(F)(F)F)nn12` [Compound 21], the “TAMRA EC1.5 (μM)” value under setting [1] was “A (EC1.5<1 μM)”. The Emax under setting [2] is ≥ 350%.

With `Cc1ccc(NC(=O)c2cnn3ccc(-c4ccccc4C(F)(F)F)nc23)c(C)n1` [Compound 641], the “TAMRA EC1.5 (μM)” value under setting [5] is “B (EC1.5 1-25 μM)”. Also, the Emax under setting [6] was ≥ 350%.

Turning to `O=C(Nc1ccnc(N2CCC2)c1)c1cnc2ccc(-c3ccc(F)c(F)c3F)nn12` [Compound 132], the “TAMRA EC1.5 (μM)” value under setting [1] is given as “C (EC1.5>25 μM)”. The Emax under setting [2] was < 350%.

With `Cc1cc(-c2ccccc2C(F)(F)F)nn2c(NC(=O)c3ncccn3)cnc12` [Compound 410], the “TAMRA EC1.5” value under setting [3] is on record as “A (EC1.5<1 μM)”. The Emax under setting [4] was ≥ 350%.

As to `CCOc1cc(NC(=O)c2cnn3ccc(-c4ccccc4OC(F)(F)F)nc23)ccn1` [Compound 626], the “TAMRA EC1.5 (μM)” value under setting [5] was “A (EC1.5<1 μM)”. For the same compound, the Emax under setting [6] is ≥ 350%.

`CCOc1ccc(NC(=O)c2c(C)nc3ccc(-c4cccc(C)c4)nn23)nn1` [Compound 760]: the “TAMRA EC1.5 (μM)” value under setting [5] was “A (EC1.5<1 μM)”. In addition, the Emax under setting [6] is < 350%.

Take `N#Cc1ccccc1-c1ccc2ncc(C(=O)Nc3cnccn3)n2n1` [Compound 205]: the “TAMRA EC1.5 (μM)” value under setting [5] was “B (EC1.5 1-25 μM)”. Further, the Emax under setting [6] was < 350%.

As for `Cn1cc(NC(=O)c2cnc3ccc(-c4ccccc4C(F)(F)F)nn23)cn1` [Compound 153], the “TAMRA EC1.5 (μM)” value under setting [1] is reported as “B (EC1.5 1-25 μM)”. In addition, the Emax under setting [2] is ≥ 350%.

For `Cc1nn2ccc(-c3ccccc3C(F)(F)F)nc2c1C(=O)Nc1cccc(CN2CCOCC2)n1` [Compound 550], the “TAMRA EC1.5” value under setting [3] is reported as “A (EC1.5<1 μM)”. The Emax under setting [4] is ≥ 350%.

On to `O=C(Nc1ccncc1)c1cnc2ccc(-c3ccccc3F)nn12` [Compound 136], for which the “TAMRA EC1.5 (μM)” value under setting [1] is “B (EC1.5 1-25 μM)”. Besides, the Emax under setting [2] was < 350%.

On to `O=C(Nc1cccc(CN2CCOCC2)n1)c1cnc2ccc(-c3ccccc3C(F)(F)F)nn12` [Compound 19, N-(6-(morpholinomethyl)pyridin-2-yl)-6-(2-(trifluoromethyl)phenyl)imidazo[1,2-b]pyridazine-3-carboxamide], for which, under setting [1], the “TAMRA EC1.5 (μM)” value is on record as “A (EC1.5<1 μM)”. Besides, under setting [2], the Emax was ≥ 350%.

For the compound `O=C(Nc1nc(CN2CCOCC2)cs1)c1cnc2ccc(-c3cc(F)cc(F)c3)nn12` [Compound 46], the “TAMRA EC1.5 (μM)” value under setting [1] is reported as “B (EC1.5 1-25 μM)”. For the same compound, under setting [2], the Emax was < 350%.

Consider `O=C(Nc1cccc(CN2CCOCC2)n1)c1cnc2ccc(-c3cccc(F)c3)nn12` [Compound 28], for which the “TAMRA EC1.5 (μM)” value under setting [1] is reported as “A (EC1.5<1 μM)”. Also, the Emax under setting [2] is < 350%.

For `Cc1cc(NC(=O)c2cnc3ccc(-c4ccccc4C(F)(F)F)nn23)cc(OC[C@H](O)CO)n1` [Compound 557], the “TAMRA EC1.5” value under setting [3] is “A (EC1.5<1 μM)”. In addition, under setting [4], the Emax was ≥ 350%.

In the case of `O=C(Nc1cnn2ccc(-c3ccccc3OC(F)(F)F)nc12)c1nccs1` [Compound 781], the “TAMRA EC1.5 (μM)” value under setting [5] is recorded as “B (EC1.5 1-25 μM)”. Further, the Emax under setting [6] is ≥ 350%.

(Values after US9957271B2, “Substituted bicyclic aza-heterocycles and analogues as sirtuin modulators” (GlaxoSmithKline, LLC, priority 2012, dated 2018).)
